Reference: ChEMBL document CHEMBL6115000, “Discovery of a first-in-class PROTAC degrader of histone lysine demethylase KDM4” (Eur J Med Chem, 2025)
Calls of active or inactive are those of the source. The rule behind the calls is not given here.

Columns and labels:
[1] = target: T1, von Hippel-Lindau disease tumor suppressor/Lysine-specific demethylase 4A (Homo sapiens, UniProt O75164+P40337); assay: PROTAC activity at VHL/KDM4A in human KYSE-150 cells assessed as induction of KDM4A degradation at 0.1 uM incubated for 12 hrs by Western blot analysis relative to control; type: cell-based; settings: KYSE-150 cell line
Target sequence in this assay (O75164 2-1064 limits assumed): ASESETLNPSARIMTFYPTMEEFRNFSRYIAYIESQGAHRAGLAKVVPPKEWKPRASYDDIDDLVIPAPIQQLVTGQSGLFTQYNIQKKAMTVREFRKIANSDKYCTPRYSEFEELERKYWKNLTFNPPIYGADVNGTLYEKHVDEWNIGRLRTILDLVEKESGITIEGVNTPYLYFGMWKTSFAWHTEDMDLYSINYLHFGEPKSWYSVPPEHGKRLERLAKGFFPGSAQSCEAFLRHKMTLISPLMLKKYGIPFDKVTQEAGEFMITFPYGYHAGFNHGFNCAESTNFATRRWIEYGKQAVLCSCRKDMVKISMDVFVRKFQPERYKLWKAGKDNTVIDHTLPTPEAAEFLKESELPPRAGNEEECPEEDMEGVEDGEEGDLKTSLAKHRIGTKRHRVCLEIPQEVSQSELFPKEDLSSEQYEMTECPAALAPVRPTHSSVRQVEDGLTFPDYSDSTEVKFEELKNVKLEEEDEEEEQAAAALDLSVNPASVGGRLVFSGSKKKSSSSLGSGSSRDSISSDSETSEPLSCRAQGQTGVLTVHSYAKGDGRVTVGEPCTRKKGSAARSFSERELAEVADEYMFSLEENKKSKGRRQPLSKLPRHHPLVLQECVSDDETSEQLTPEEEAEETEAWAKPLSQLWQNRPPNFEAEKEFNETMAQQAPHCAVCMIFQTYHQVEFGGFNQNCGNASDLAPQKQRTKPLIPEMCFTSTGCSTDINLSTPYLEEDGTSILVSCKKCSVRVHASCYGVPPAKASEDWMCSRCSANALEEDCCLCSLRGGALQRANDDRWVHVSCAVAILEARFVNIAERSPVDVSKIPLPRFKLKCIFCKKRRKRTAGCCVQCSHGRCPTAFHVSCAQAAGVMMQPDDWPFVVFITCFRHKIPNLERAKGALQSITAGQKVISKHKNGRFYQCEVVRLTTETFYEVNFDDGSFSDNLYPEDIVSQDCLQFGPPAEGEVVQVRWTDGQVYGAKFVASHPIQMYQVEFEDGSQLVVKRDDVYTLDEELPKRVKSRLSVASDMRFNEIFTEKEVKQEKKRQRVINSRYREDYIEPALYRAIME
Target sequence in this assay (P40337 whole entry partner): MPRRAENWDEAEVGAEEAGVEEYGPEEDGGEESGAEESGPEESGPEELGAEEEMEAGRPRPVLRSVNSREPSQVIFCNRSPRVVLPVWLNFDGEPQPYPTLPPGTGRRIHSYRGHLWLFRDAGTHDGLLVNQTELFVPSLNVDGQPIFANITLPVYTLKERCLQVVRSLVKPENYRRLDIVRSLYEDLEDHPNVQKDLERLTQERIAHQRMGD

[2] = target: T1, von Hippel-Lindau disease tumor suppressor/Lysine-specific demethylase 4A; assay: PROTAC activity at VHL/KDM4A in human KYSE-150 cells assessed as induction of KDM4A degradation measured after 24 hrs by Western blot analysis; type: cell-based
[3] = target: T1, von Hippel-Lindau disease tumor suppressor/Lysine-specific demethylase 4A; assay: PROTAC activity at VHL/KDM4A in human KYSE-150 cells assessed as induction of KDM4A degradation upto 1000 nM measured after 24 hrs by Western blot analysis relative to control; type: cell-based; settings: KYSE-150 cell line
Target sequence in this assay (O75164 2-1064 limits assumed): as the sequence (O75164 2-1064 limits assumed) above
Target sequence in this assay (P40337 whole entry partner): as the sequence (P40337 whole entry partner) above

[4] = target: T2, von Hippel-Lindau disease tumor suppressor/Lysine-specific demethylase 4C (Homo sapiens, UniProt Q9H3R0+P40337); assay: PROTAC activity at VHL/KDM4C in human KYSE-150 cells assessed as induction of KDM4C degradation measured after 24 hrs by Western blot analysis; type: cell-based
[5] = target: T2, von Hippel-Lindau disease tumor suppressor/Lysine-specific demethylase 4C; assay: PROTAC activity at VHL/KDM4C in human KYSE-150 cells assessed as induction of KDM4C degradation upto 1000 nM measured after 24 hrs by Western blot analysis relative to control; type: cell-based; settings: KYSE-150 cell line
Target sequence in this assay (P40337 whole entry, looked up): as the sequence (P40337 whole entry partner) above
Target sequence in this assay (Q9H3R0 whole entry, looked up): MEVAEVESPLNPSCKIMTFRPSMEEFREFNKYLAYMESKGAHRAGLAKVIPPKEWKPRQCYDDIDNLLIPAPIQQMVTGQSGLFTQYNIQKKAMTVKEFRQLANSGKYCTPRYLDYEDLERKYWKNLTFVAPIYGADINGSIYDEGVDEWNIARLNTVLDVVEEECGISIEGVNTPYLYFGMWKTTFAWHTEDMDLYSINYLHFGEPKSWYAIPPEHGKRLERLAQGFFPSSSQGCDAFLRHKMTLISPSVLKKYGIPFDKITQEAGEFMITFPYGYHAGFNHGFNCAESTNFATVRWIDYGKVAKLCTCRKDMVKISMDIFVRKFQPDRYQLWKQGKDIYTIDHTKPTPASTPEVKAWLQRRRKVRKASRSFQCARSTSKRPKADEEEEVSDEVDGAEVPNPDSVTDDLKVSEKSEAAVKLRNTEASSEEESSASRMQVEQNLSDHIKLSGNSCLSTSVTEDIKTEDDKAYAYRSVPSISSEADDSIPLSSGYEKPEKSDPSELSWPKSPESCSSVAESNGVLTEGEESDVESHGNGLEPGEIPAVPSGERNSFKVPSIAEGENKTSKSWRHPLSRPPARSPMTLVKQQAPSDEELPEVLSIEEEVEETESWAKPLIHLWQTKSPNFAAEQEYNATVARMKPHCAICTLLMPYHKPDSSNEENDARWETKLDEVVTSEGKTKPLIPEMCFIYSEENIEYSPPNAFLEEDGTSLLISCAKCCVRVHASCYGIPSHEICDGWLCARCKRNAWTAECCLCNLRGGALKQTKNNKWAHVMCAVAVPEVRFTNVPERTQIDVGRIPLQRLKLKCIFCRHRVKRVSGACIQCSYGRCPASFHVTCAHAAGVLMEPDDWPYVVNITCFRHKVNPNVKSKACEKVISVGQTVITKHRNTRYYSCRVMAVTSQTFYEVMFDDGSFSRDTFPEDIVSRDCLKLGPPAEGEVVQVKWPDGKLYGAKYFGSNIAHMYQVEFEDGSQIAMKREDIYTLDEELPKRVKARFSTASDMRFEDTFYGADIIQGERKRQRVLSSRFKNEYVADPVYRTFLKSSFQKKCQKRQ

[6] = target: von Hippel-Lindau disease tumor suppressor/Lysine-specific demethylase 4B (Homo sapiens, UniProt P40337+O94953); assay: PROTAC activity at VHL/KDM4B in human KYSE-150 cells assessed as induction of KDM4B degradation upto 1000 nM by Western blot analysis; type: cell-based; settings: KYSE-150 cell line
[7] = target: T2, von Hippel-Lindau disease tumor suppressor/Lysine-specific demethylase 4C; assay: PROTAC activity at VHL/KDM4C in human KYSE-150 cells assessed as induction of KDM4C degradation upto 1000 nM by Western blot analysis; type: cell-based; settings: KYSE-150 cell line
Target sequence in this assay (P40337 whole entry, looked up): as the sequence (P40337 whole entry partner) above
Target sequence in this assay (Q9H3R0 whole entry, looked up): as the sequence (Q9H3R0 whole entry, looked up) above

[8] = target: T1, von Hippel-Lindau disease tumor suppressor/Lysine-specific demethylase 4A; assay: PROTAC activity at VHL/KDM4A in human KYSE-150 cells assessed as induction of KDM4A degradation at 50 nM incubated for 24 hrs in presence of bortezomib by Western blot analysis; type: cell-based; settings: KYSE-150 cell line
Target sequence in this assay (O75164 2-1064 limits assumed): as the sequence (O75164 2-1064 limits assumed) above
Target sequence in this assay (P40337 whole entry partner): as the sequence (P40337 whole entry partner) above

[9] = target: T1, von Hippel-Lindau disease tumor suppressor/Lysine-specific demethylase 4A; assay: PROTAC activity at VHL/KDM4A in human KYSE-150 cells assessed as induction of KDM4A degradation at 50 nM incubated for 24 hrs in presence of MLN4924 by Western blot analysis; type: cell-based; settings: KYSE-150 cell line
Target sequence in this assay (O75164 2-1064 limits assumed): as the sequence (O75164 2-1064 limits assumed) above
Target sequence in this assay (P40337 whole entry partner): as the sequence (P40337 whole entry partner) above

[10] = target: T1, von Hippel-Lindau disease tumor suppressor/Lysine-specific demethylase 4A; assay: PROTAC activity at VHL/KDM4A in human KYSE-150 cells assessed as induction of KDM4A degradation at 50 nM incubated for 24 hrs in presence of Ac-VHL-Me by Western blot analysis; type: cell-based; settings: KYSE-150 cell line
Target sequence in this assay (O75164 2-1064 limits assumed): as the sequence (O75164 2-1064 limits assumed) above
Target sequence in this assay (P40337 whole entry partner): as the sequence (P40337 whole entry partner) above

[11] = target: T1, von Hippel-Lindau disease tumor suppressor/Lysine-specific demethylase 4A; assay: PROTAC activity at VHL/KDM4A in human KYSE-150 cells assessed as increase in KDM4A ubiquitination at 50 nM incubated for 24 hrs by Western blot analysis; type: cell-based; settings: KYSE-150 cell line
Target sequence in this assay (O75164 2-1064 limits assumed): as the sequence (O75164 2-1064 limits assumed) above
Target sequence in this assay (P40337 whole entry partner): as the sequence (P40337 whole entry partner) above

[12] = target: T1, von Hippel-Lindau disease tumor suppressor/Lysine-specific demethylase 4A; assay: PROTAC activity at VHL/KDM4A in human KYSE-150 cells assessed as increase in H3K36me3 level incubated for 24 hrs by Western blot analysis; type: cell-based; settings: KYSE-150 cell line, dose <= 1000.0 nM
[13] = target: T1, von Hippel-Lindau disease tumor suppressor/Lysine-specific demethylase 4A; assay: PROTAC activity at VHL/KDM4A in human KYSE-150 cells assessed as fold increase in H3K36me3 level at 1000 nM incubated for 24 hrs by Western blot analysis relative to control; type: cell-based; settings: KYSE-150 cell line
[14] = Induction of cell cycle arrest in human KYSE-150 cells assessed as accumulation of cells at G0/G1 phase at 12.3 nM incubated for 24 hrs by flow cytometry (reference value: 65.08 %); type: functional
[15] = Induction of cell cycle arrest in human KYSE-150 cells assessed as accumulation of cells at S pahse at 12.3 nM incubated for 24 hrs by flow cytometry (reference value: 13.15 %); type: functional
[16] = Induction of cell cycle arrest in human KYSE-150 cells assessed as accumulation of cells at G2/M phase at 12.3 nM incubated for 24 hrs by flow cytometry (reference value: 21.64 %); type: functional
[17] = Induction of cell cycle arrest in human KYSE-150 cells assessed as accumulation of cells at G0/G1 phase at 37 nM incubated for 24 hrs by flow cytometry (reference value: 65.08 %); type: functional
[18] = Induction of cell cycle arrest in human KYSE-150 cells assessed as accumulation of cells at S pahse at 37 nM incubated for 24 hrs by flow cytometry (reference value: 13.15 %); type: functional
[19] = Induction of cell cycle arrest in human KYSE-150 cells assessed as accumulation of cells at S pahse at 111.1 nM incubated for 24 hrs by flow cytometry (reference value: 13.15 %); type: functional
[20] = Induction of cell cycle arrest in human KYSE-150 cells assessed as accumulation of cells at S pahse at 1000 nM incubated for 24 hrs by flow cytometry (reference value: 13.15 %); type: functional
[21] = Induction of apoptosis in human KYSE-150 cells assessed as necrotic cells at 12.3 nM incubated for 72 hrs by Annexin V-PE/7-AAD staining based flow cytometry (reference value: 4.28 %); type: functional
[22] = Induction of apoptosis in human KYSE-150 cells assessed as late apoptotic cells at 37 nM incubated for 72 hrs by Annexin V-PE/7-AAD staining based flow cytometry (reference value: 5.98 %); type: functional
[23] = Induction of apoptosis in human KYSE-150 cells assessed as early apoptotic cells at 111.1 nM incubated for 72 hrs by Annexin V-PE/7-AAD staining based flow cytometry (reference value: 5.27 %); type: functional
[24] = Induction of apoptosis in human KYSE-150 cells assessed as necrotic cells at 111.1 nM incubated for 72 hrs by Annexin V-PE/7-AAD staining based flow cytometry (reference value: 4.28 %); type: functional
[25] = Induction of apoptosis in human KYSE-150 cells assessed as viable cells at 333.3 nM incubated for 72 hrs by Annexin V-PE/7-AAD staining based flow cytometry (reference value: 84.47 %); type: functional; settings: read-out: Activity
[26] = Induction of apoptosis in human KYSE-150 cells assessed as early apoptotic cells at 333.3 nM incubated for 72 hrs by Annexin V-PE/7-AAD staining based flow cytometry (reference value: 5.27 %); type: functional
[27] = Induction of apoptosis in human KYSE-150 cells assessed as late apoptotic cells at 333.3 nM incubated for 72 hrs by Annexin V-PE/7-AAD staining based flow cytometry (reference value: 5.98 %); type: functional
[28] = Induction of apoptosis in human KYSE-150 cells assessed as necrotic cells at 333.3 nM incubated for 72 hrs by Annexin V-PE/7-AAD staining based flow cytometry (reference value: 4.28 %); type: functional
[29] = Induction of apoptosis in human KYSE-150 cells assessed as viable cells at 1000 nM incubated for 72 hrs by Annexin V-PE/7-AAD staining based flow cytometry (reference value: 84.47 %); type: functional; settings: read-out: Activity
[30] = Induction of apoptosis in human KYSE-150 cells assessed as necrotic cells at 1000 nM incubated for 72 hrs by Annexin V-PE/7-AAD staining based flow cytometry (reference value: 4.28 %); type: functional

Sequence of von Hippel-Lindau disease tumor suppressor/Lysine-specific demethylase 4B (O94953 whole entry, looked up): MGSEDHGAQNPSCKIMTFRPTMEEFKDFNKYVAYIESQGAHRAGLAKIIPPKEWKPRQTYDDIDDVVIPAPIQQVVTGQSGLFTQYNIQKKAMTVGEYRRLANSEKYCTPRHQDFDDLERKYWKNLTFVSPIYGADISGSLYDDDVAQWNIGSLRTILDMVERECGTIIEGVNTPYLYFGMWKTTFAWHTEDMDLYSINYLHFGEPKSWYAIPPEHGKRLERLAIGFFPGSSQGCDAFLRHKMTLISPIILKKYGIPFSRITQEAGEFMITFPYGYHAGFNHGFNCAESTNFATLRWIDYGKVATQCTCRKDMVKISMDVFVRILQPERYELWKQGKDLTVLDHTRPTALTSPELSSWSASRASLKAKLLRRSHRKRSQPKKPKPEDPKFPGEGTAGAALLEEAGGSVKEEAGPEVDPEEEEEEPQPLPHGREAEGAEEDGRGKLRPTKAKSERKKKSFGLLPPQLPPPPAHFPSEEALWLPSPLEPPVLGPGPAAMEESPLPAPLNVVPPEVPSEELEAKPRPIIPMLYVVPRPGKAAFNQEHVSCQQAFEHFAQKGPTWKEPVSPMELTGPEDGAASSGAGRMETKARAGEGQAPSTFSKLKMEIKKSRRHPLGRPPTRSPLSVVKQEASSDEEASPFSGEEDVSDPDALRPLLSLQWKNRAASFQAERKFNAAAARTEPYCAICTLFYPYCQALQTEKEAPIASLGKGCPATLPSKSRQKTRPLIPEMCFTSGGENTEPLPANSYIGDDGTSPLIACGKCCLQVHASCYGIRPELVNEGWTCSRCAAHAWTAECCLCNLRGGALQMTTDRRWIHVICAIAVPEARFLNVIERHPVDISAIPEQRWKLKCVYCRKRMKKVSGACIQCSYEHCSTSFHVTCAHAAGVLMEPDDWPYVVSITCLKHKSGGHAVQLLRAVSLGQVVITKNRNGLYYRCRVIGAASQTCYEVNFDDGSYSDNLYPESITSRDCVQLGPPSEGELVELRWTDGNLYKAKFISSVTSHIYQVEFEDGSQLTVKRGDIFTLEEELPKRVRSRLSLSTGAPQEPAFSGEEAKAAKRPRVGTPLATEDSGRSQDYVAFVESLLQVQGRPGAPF
Sequence of von Hippel-Lindau disease tumor suppressor/Lysine-specific demethylase 4B (P40337 whole entry, looked up): as the sequence (P40337 whole entry partner) above

## Cc1ncsc1-c1ccc([C@H](C)NC(=O)[C@@H]2C[C@@H](O)CN2C(=O)[C@@H](NC(=O)CCCCCCCCCOc2ccc(N(C)c3ccc4c(c3)OCC[C@H]4CNc3cnccc3C(=O)O)cc2)C(C)(C)C)cc1
[1]
  Activity: 44.9%
[2]; KYSE-150 cell line
  Activity: Dose-dependent-effect
[2]; kyse-150 cell line
  DC50: 37.5 nM
[3]
  Emax: 83.3%
[4]; KYSE-150 cell line
  Activity: Dose-dependent-effect
[4]; kyse-150 cell line
  DC50: 49.4 nM
[5]
  Emax: 77.8%
[6]
  Activity: Time-dependent-effect
[7]
  Activity: Time-dependent-effect
[8]
  Activity: inactive
[9]
  Activity: inactive
[10]
  Activity: inactive
[11]
  Activity: Active
[12]
  Activity: Active
[13]
  FC: 2
[14]
  Activity: 69.11%
[15]
  Activity: 14.42%
[16]
  Activity: 16.31%
[17]
  Activity: 71.68%
[18]
  Activity: 14.84%
[19]
  Activity: 14.35%
[20]
  Activity: 13.1%
[21]
  Activity: 6.02%
[22]
  Activity: 43.51%
[23]
  Activity: 22.13%
[24]
  Activity: 5.52%
[25]
  viability at 0.3333 µM: 19.5%
[26]
  Activity: 26.6%
[27]
  Activity: 48.79%
[28]
  Activity: 4.83%
[29]
  viability at 1 µM: 17.9%
[30]
  Activity: 5.01%
